Measurements taken from ChEMBL document CHEMBL5137082, “Discovery of a Novel Vascular Disrupting Agent Inhibiting Tubulin Polymerization and HDACs with Potent Antitumor Effects” (J Med Chem, 2022).
Calls of active or inactive are those of the source. No cut-off for these calls is given here.

Columns and labels:
HCT-116 = test: Antiproliferative activity against human HCT-116 cells assessed as inhibition of cell growth measured after 72 hrs by MTT assay; type: functional, cell-based; conditions: HCT-116, 72 h
H22 [1] = test: Antiproliferative activity against mouse H22 cells assessed as inhibition of cell growth measured after 72 hrs by MTT assay; type: functional, cell-based; conditions: H22, 72 h
MCF7 = test: Antiproliferative activity against human MCF7 cells assessed as inhibition of cell growth measured after 72 hrs by MTT assay; type: functional, cell-based; conditions: MCF7, 72 h
Histone deacetylase 3 = Histone deacetylase 3 (Homo sapiens, UniProt O15379); test: Inhibition of HDAC3 in human HeLa cells using BOC-K(Ac)-AMC as substrate measured after 30 mins by fluorescence based microtiter plate reader assay; type: cell-based
Tubulin = test: Inhibition of tubulin polymerization (unknown origin) preincubated for 15 mins followed by PEG and GTP addition measured after 30 mins by spectrophotometric method; type: protein-complex assay, Homo sapiens
Histone deacetylase 2 = Histone deacetylase 2 (Homo sapiens, UniProt Q92769); test: Inhibition of HDAC2 in human HepG2 cells assessed as increase in level of acetyl histone H3substrate incubated for 24 hrs by chemiluminescence based Western blotting analysis; type: cell-based; conditions: dose 0.03-0.3 µM
Tubulin (Homo sapiens) = Tubulin (Homo sapiens) (UniProt P68371+Q9H4B7+P0DPH7+P68366+Q13509+Q71U36+P04350+Q3ZCM7+P07437+P68363+Q9BQE3+Q6PEY2+Q13885+Q9BVA1+Q9BUF5); test: Induction of microtubule disruption in human HepG2 cells assessed as loss of cellular structure at 7.5 to 30 nM measured after 2 hrs by DAPI staining based immunofluorescence microscopic assay; type: cell-based; conditions: dose 7.5-30 nM
HepG2 [2] = test: Induction of cell cycle arrest in human HepG2 cells assessed as accumulation S phase at 7.5 nM incubated for 48 hrs by propidium iodide staining based flow cytometry analysis (reference value: 17.14 +/- 0.34%); type: functional
HepG2 [3] = test: Induction of cell cycle arrest in human HepG2 cells assessed as accumulation G2 phase at 7.5 nM incubated for 48 hrs by propidium iodide staining based flow cytometry analysis (reference value: 23.55 +/- 0.29%); type: functional
HepG2 [4] = test: Induction of cell cycle arrest in human HepG2 cells assessed as accumulation G2 phase at 15 nM incubated for 48 hrs by propidium iodide staining based flow cytometry analysis (reference value: 23.55 +/- 0.29%); type: functional
HepG2 [5] = test: Induction of cell cycle arrest in human HepG2 cells assessed as accumulation G1 phase at 30 nM incubated for 48 hrs by propidium iodide staining based flow cytometry analysis (reference value: 59.32 +/- 0.77%); type: functional
HepG2 [6] = test: Induction of morphological changes in human HepG2 cells assessed as chromatin aggregation at 7.5 to 30 nM after 48 hrs by Hoechst 33258 staining based fluorescence microscopic analysis; type: functional, cell-based; conditions: dose 7.5-30 nM
HepG2 [7] = test: Induction of apoptosis in human HepG2 cells assessed as late apoptotic cells at 7.5 nM incubated for 48 hrs by Annexin-V/PI-staining based flow cytometry (reference value: 2.53 +/- 0.34%); type: functional
HepG2 [8] = test: Induction of apoptosis in human HepG2 cells assessed as necrotic cells at 15 nM incubated for 48 hrs by Annexin-V/PI-staining based flow cytometry (reference value: 1.43 +/- 0.26%); type: functional
HepG2 [9] = test: Induction of apoptosis in human HepG2 cells assessed as late apoptotic cells at 30 nM incubated for 48 hrs by Annexin-V/PI-staining based flow cytometry (reference value: 2.53 +/- 0.34%); type: functional
HepG2 [10] = test: Induction of apoptosis in human HepG2 cells assessed as downregulation of Bcl-2 protein expression measured after 24 hrs by Western blot analysis; type: functional, cell-based; conditions: dose 7.5-30 nM, DDE = dose-dependent effect
PC-3 [11] = test: Induction of apoptosis in human PC-3 cells assessed as mitochondrial membrane potential loss by measuring increase in green fluorescence at 7.5 nM incubated for 48 hrs by JC1 staining based flow cytometry analysis (reference value: 6.50 +/- 0.17%); type: functional
PC-3 [12] = test: Induction of apoptosis in human PC-3 cells assessed as mitochondrial membrane potential loss by measuring early apoptotic cells at 15 nM incubated for 48 hrs by JC1 staining based flow cytometry analysis (reference value: 6.50 +/- 0.17%); type: functional
PC-3 [13] = test: Induction of apoptosis in human PC-3 cells assessed as mitochondrial membrane potential loss by measuring decrease in red fluorescence at 30 nM incubated for 48 hrs by JC1 staining based flow cytometry analysis (reference value: 93.48 +/- 0.15%); type: functional; design: scale not given: the % may be the effect or the level left
MDA-MB-231 = test: Inhibition of cell invasion in human MDA-MB-231 cells measured after 48 hrs by crystal violet staining based transwell assay; type: functional; conditions: dose 7.5-30 nM, DDE = dose-dependent effect
[14] = Metabolic stability in mouse plasma assessed as compound remaining at 40 uM measured after 1 hrs by LC-MS/MS analysis (reference value: 100%); type: ADME, cell-free
[15] = Metabolic stability in mouse liver microsomes assessed as half life at 1 uM in presence of NADPH measured up to 60 mins by LC-MS/MS analysis; type: ADME, Microsome
[16] = Metabolic stability in mouse liver microsomes assessed as intrinsic clearance at 1 uM in presence of NADPH measured per gram protein up to 60 mins by LC-MS/MS analysis; type: ADME, Microsome; conditions: 1 h
[17] = Metabolic stability in mouse assessed as intrinsic clearance; type: ADME; conditions: 1 h, 1 µM, time < 60 min
H22 [18] = test: Antitumor activity against mouse H22 cells allografted in ICR mouse assessed as reduction in tumor weight at 20 mg/kg, iv administered qd measured after 21 days; type: functional; design: scale not given: the % may be the effect or the level left; conditions: time 21 day
Mus musculus [19] = test: In vivo inhibition of HDAC in ICR mouse allografted with mouse H22 cells assessed as upregulation of acetyl-histone H3 expression at 20 mg/kg, iv qd administered for 21 days measured after 24 hrs by Western blot analysis; type: functional, organism-based; conditions: time 21.0 day
Mus musculus [20] = test: In vivo inhibition of HDAC in ICR mouse allografted with mouse H22 cells assessed as upregulation of acetyl-alpha tubulin expression at 20 mg/kg, iv qd administered for 21 days measured after 24 hrs by Western blot analysis; type: functional, organism-based; conditions: time 21.0 day
H22 [21] = test: Antivascular activity against mouse H22 cells allografted in ICR mouse assessed as inhibition of blood vessel formation at 20 mg/kg, iv administered qd measured after 21 days by immunohistochemistry analysis; type: functional, organism-based; conditions: time 21.0 day
H22 [22] = test: Antitumor activity against mouse H22 cells allografted in ICR mouse assessed as reduction in tumor volume growth rate at 20 mg/kg, iv administered qd for 21 days measured after 12 days; type: functional, organism-based; conditions: time 21.0 day
[23] = Toxicity in ICR mouse allografted with mouse H22 cells assessed as pathological changes in heart at 20 mg/kg, iv administered qd measured after 21 days by H and E staining based analysis; type: organism-based; conditions: in vivo, 504 h, time 21 day
[24] = Toxicity in ICR mouse allografted with mouse H22 cells assessed as pathological changes in kidney at 20 mg/kg, iv administered qd measured after 21 days by H and E staining based analysis; type: organism-based; conditions: in vivo, 504 h, time 21 day
[25] = Induction of apoptosis in ICR mouse cardiac tissue at 20 mg/kg, iv administered qd measured after 21 days by TUNEL assay; type: toxicity, organism-based; conditions: in vivo, 504 h, time 21 day

Histone deacetylase 3, sequence (O15379 whole entry): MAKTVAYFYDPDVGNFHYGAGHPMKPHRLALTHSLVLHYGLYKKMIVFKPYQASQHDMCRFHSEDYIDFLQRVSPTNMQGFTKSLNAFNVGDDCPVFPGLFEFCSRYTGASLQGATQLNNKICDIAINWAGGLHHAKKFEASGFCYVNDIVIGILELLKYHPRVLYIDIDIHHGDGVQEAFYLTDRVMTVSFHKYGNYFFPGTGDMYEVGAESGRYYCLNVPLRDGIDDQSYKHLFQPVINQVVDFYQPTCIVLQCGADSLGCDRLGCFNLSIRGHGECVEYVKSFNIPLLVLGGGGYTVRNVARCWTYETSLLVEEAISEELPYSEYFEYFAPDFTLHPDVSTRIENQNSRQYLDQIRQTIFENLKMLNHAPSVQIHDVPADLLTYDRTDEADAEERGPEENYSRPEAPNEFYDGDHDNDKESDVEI
Histone deacetylase 2, sequence (Q92769 whole entry): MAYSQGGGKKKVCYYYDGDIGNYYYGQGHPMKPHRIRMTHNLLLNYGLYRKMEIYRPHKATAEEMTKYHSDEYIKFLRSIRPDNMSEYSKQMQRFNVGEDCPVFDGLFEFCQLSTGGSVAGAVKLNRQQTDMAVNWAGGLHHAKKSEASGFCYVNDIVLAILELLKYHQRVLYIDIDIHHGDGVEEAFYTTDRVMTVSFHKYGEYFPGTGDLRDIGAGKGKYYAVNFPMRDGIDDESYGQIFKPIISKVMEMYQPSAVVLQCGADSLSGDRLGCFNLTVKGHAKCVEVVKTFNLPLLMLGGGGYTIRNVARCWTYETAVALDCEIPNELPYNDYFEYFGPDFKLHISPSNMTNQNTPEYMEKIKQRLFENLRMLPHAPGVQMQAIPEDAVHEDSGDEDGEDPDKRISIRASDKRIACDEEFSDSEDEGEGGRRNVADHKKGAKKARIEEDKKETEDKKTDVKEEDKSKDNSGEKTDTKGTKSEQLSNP

COc1ccc(CNC(=O)c2cc(F)ccc2N2CCOCC2)cc1/C=C/C(=O)NO gave an IC50 (HCT-116) of 0.028 µM, an IC50 (H22 [1]) of 0.026 µM and an IC50 (MCF7) of 0.027 µM. For the same compound, the IC50 (Histone deacetylase 3) was 0.242 µM, the IC50 (Tubulin) was 4.06 µM and the inhibition (Histone deacetylase 2) was “Active”. For the same compound, the Activity (Tubulin (Homo sapiens)) was “Active”, the Activity (HepG2 [2]) was 20.81% and the Activity (HepG2 [3]) was 24.42%. For the same compound, the Activity (HepG2 [4]) was 26.97%, the Activity (HepG2 [5]) was 43.33% and the Activity (HepG2 [6]) was “Active”. For the same compound, the Activity (HepG2 [7]) was 6.89%, the Activity (HepG2 [8]) was 1.13% and the Activity (HepG2 [9]) was 15.68%. The Activity (HepG2 [10]) was “Dde”, the Activity (PC-3 [11]) was 23.22% and the Activity (PC-3 [12]) was 35.4%. The Activity (PC-3 [13]) was 49.39%, the inhibition (MDA-MB-231) was “Dde” and the Stability [14] was 45.6%. It also gave a half-life at 1 µM [15] of 50.3 min, a CLH [16] of 41.7 mL/min/g and a CL [17] of 2.82 mL/min. For the same compound, the Activity (H22 [18]) was 83%, the inhibition (Mus musculus [19]) was “Active” and the inhibition (Mus musculus [20]) was “Active”. The Activity (H22 [21]) was “Active”, the Activity (H22 [22]) was “Active” and the Activity [23] was “Non-Toxic”. The Activity [24] was “Non-Toxic” and the Activity [25] was “Non-Toxic”.
